Experimental data published in article PMC11858513, “Antibiofilm Activities of Tritrpticin Analogs Against Pathogenic Pseudomonas aeruginosa PA01 Strains” (Molecules, 2025).
In brackets after ≈: the same amount, converted by molar mass. Where two headings read alike, the source gives them in different places. Non-standard residues stand in square brackets, D forms with d. Residues, ends and D or L forms follow the SMILES beside them. Dap = NC[C@H](N)C(=O)O

Experiments:
P. aeruginosa PAO1 [1] = type: cell-based, Pseudomonas aeruginosa; details: absorbance 600 nm
In short: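 PAO1 tested with peptides in 1× BM2; planktonic growth read at 600 nm, biofilm quantified by 0.1% crystal violet staining (15 min), ethanol release and 595 nm reading, using a Calgary biofilm device. Values are means of three replicates with untreated-growth and medium-only controls.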

P. aeruginosa PAO1 GFP [2] = assay: MBEC, biofilm eradication, GFP fluorescence method; type: cell-based, Pseudomonas aeruginosa
In short: (§1)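 GFP-expressing P. aeruginosa PAO1 exposed to peptides; planktonic MIC read by absorbance at 600 nm, while MBIC (prevention) and MBEC (eradication) used biofilm GFP fluorescence at 480/530 nm. Triplicate biological replicates averaged, with untreated growth and medium-only controls on each plate.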

[3] = test system: peripheral blood mononuclear cells (PBMCs); details: cited from earlier work
Description: (§2) Overall, our work highlights the potential of […] analogs in comparison to related Trp-rich AMPs as potent antibiofilm peptides that can interfere in biofilms produced by P. aeruginosa and potentially other Gram-negative pathogenic bacteria. New antibiofilm agents are welcome for this organism, as P. aeruginosa is well-known to have numerous mechanisms to elude the action of antibiotics during biofilm formation. Various factors can influence the suitability of AMPs to act as bactericidal and antibiofilm peptides simultaneously (for a general discussion see, for example, [74]). One ...

red blood cells = details: cited from earlier work
Description: as §2

P. aeruginosa PAO1 GFP [4] = assay: MBIC, prevention of biofilm formation, GFP fluorescence method; type: cell-based, Pseudomonas aeruginosa
In short: as §1

P. aeruginosa PAO1 GFP [5] = assay: MIC against planktonic cells, absorbance at 600 nm; type: cell-based, Pseudomonas aeruginosa; details: absorbance 600 nm
In short: as §1

P. aeruginosa PAO1 [6] = type: cell-based
In short: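 Peptides tested against P. aeruginosa PAO1 in 1× BM2 medium; planktonic growth read at 600 nm for MIC. Biofilm inhibition and eradication quantified by 0.1% crystal violet staining (15 min), ethanol release, absorbance at 595 nm, plus GFP-fluorescence and Calgary peg-device methods; triplicate means.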

S. aureus GFP [7] = assay: MIC against planktonic cells, absorbance at 600 nm; type: cell-based, Staphylococcus aureus; details: Table 4; Sa GFP, 10% TSB and 0.1% glucose; absorbance 600 nm; mean of three biological replicates
In short: (§3)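 GFP-expressing S. aureus, triplicate biological replicates. MIC on planktonic cells by absorbance at 600 nm. MBIC and MBEC from biofilm GFP fluorescence (480/530 nm), with untreated growth and media-only controls.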

S. aureus GFP [8] = assay: MBIC, GFP fluorescence method; type: cell-based, Staphylococcus aureus; details: Table 4, Sa GFP, 10% TSB and 0.1% glucose, mean of three biological replicates
In short: as §3

S. aureus GFP [9] = assay: MBEC, GFP fluorescence method; type: cell-based, Staphylococcus aureus; details: Table 4, Sa GFP, 10% TSB and 0.1% glucose, mean of three biological replicates
In short: as §3

P. aeruginosa PAO1 [10] = type: cell-based, Pseudomonas aeruginosa; details: Table 5; PAO1, 1x BM2; biofilms on pegs, cells plated and counted; three biological replicates
In short: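 Biofilm eradication (MBEC) for peptides against P. aeruginosa PAO1 in 1× BM2 medium, from counts of biofilm cells; GFP-producing strain fluorescence, crystal violet staining and Calgary peg device also used. Three biological replicates, mean ± SD, with untreated growth and medium-only controls.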

S. aureus GFP [11] = type: cell-based, Staphylococcus aureus; details: Table 4; Sa GFP; lowest concentration of peptide with no bacterial growth seen on the spot agar plate
[12] = Table 6, Tritrp-Lys derivatives, PAO1, BM2, three replicates, unit not given
[13] = Table 3, Tritrp-Lys derivatives, BM2 medium, three replicates
[14] = Table 6, Tritrp-Lys derivatives, PAO1, BM2, 0.1% crystal violet 15 min, released with 95% ethanol, 595 nm, three replicates, unit not given
[15] = Table 5, regular PAO1 (no GFP), 1x BM2, mean of three biological replicates
[16] = Table 2, BM2 medium, mean of three biological replicates
[17] = Table 5, PAO1, 1x BM2, crystal violet at 595 nm, mean of three biological replicates
[18] = Table 5, minimum biofilm reduction concentration, PAO1, 1x BM2, crystal violet at 595 nm, mean of three biological replicates

Molecule | MIC at 600 nm LD50 (P. aeruginosa PAO1 [1]; [15]) [µmol/L] | MIC at 600 nm LD90 (P. aeruginosa PAO1 [1]; [15]) [µmol/L] | MIC at 600 nm LD50 (S. aureus GFP [7]) [µM] | MIC at 600 nm LD90 (S. aureus GFP [7]) [µM] | MBIC at 488 and 530 nm LD50 (S. aureus GFP [8]) [µmol/L] | MBIC at 488 and 530 nm LD90 (S. aureus GFP [8]) [µmol/L] | MBEC at 488 and 530 nm LD50 (S. aureus GFP [9]) [µmol/L] | MBEC at 488 and 530 nm LD90 (S. aureus GFP [9]) [µmol/L] | MBEC at 488 and 530 nm LD50 (P. aeruginosa PAO1 GFP [2]; [16]) [µmol/L] | MBEC at 488 and 530 nm LD90 (P. aeruginosa PAO1 GFP [2]; [16]) [µmol/L] | MBEC from Calgary Biofilm Device (CBD) LD50 (P. aeruginosa PAO1 [10]) [µmol/L] | MBEC from Calgary Biofilm Device (CBD) LD90 (P. aeruginosa PAO1 [10]) [µmol/L] | MBIC at 488 and 530 nm LD50 (P. aeruginosa PAO1 GFP [4]; [16]) [µmol/L] | MBIC at 488 and 530 nm LD90 (P. aeruginosa PAO1 GFP [4]; [16]) [µmol/L] | MBC Agar Plate (S. aureus GFP [11]) [µM] | MIC at 600 nm LD50 (P. aeruginosa PAO1 GFP [5]; [16]) [µM] | MIC at 600 nm LD90 (P. aeruginosa PAO1 GFP [5]; [16]) [µM] | MBIC (CV at 595 nm) LD50 (P. aeruginosa PAO1 [6]; [17]) [µmol/L] | MBIC (CV at 595 nm) LD90 (P. aeruginosa PAO1 [6]; [17]) [µmol/L] | MBRC (CV at 595 nm) LD90 (P. aeruginosa PAO1 [6]; [18]) [µmol/L] | further results
CC(C)C[C@H](NC(=O)[C@H](Cc1ccccc1)NC(=O)[C@@H]1CCCN1C(=O)[C@H](Cc1c[nH]c2ccccc12)NC(=O)[C@H](Cc1c[nH]c2ccccc12)NC(=O)[C@H](Cc1c[nH]c2ccccc12)NC(=O)[C@@H]1CCCN1C(=O)[C@H](Cc1ccccc1)NC(=O)[C@H](CN)NC(=O)[C@H](CN)NC(=O)[C@@H](N)C(C)C)C(=O)N[C@@H](CN)C(=O)N[C@@H](CN)C(N)=O [Tritrp-Dap] (H-V[Dap][Dap]FPWWWPFL[Dap][Dap]-NH2; N-terminus assumed) |  |  |  |  |  |  |  |  |  |  |  |  |  |  |  |  |  |  |  |  | MIC at 600 nm LD50 (P. aeruginosa PAO1 [1]; [12]): 8; MIC at 600 nm LD90 (P. aeruginosa PAO1 [1]; [12]): 16; MBEC at 488 and 530 nm LD50 (P. aeruginosa PAO1 GFP [2]; [13]): 8 µmol/L; MBEC at 488 and 530 nm LD90 (P. aeruginosa PAO1 GFP [2]; [13]): 64 µmol/L; cytotoxicity activities against PBMCs [3]: no effect; effect on RBCs (red blood cells): no effect; MBIC at 488 and 530 nm LD50 (P. aeruginosa PAO1 GFP [4]; [13]): 8 µmol/L; MBIC at 488 and 530 nm LD90 (P. aeruginosa PAO1 GFP [4]; [13]): 16 µmol/L; MIC at 600 nm LD50 (P. aeruginosa PAO1 GFP [5]; [13]): 8 µM (≈ 13 µg/mL); MIC at 600 nm LD90 (P. aeruginosa PAO1 GFP [5]; [13]): 8 µM (≈ 13 µg/mL); MBEC (CV at 595 nm) LD90 (P. aeruginosa PAO1 [6]; [14]): 64; MBIC (CV at 595 nm) LD90 (P. aeruginosa PAO1 [6]; [14]): 16
CC(C)C[C@H](NC(=O)[C@H](Cc1ccccc1)NC(=O)[C@H](C)NC(=O)[C@H](Cc1c[nH]c2ccccc12)NC(=O)[C@H](Cc1c[nH]c2ccccc12)NC(=O)[C@H](Cc1c[nH]c2ccccc12)NC(=O)[C@H](C)NC(=O)[C@H](Cc1ccccc1)NC(=O)[C@H](CCCCN)NC(=O)[C@H](CCCCN)NC(=O)[C@@H](N)C(C)C)C(=O)N[C@@H](CCCCN)C(=O)N[C@@H](CCCCN)C(N)=O [Tritrp-P59A-Lys] (H-VKKFAWWWAFLKK-NH2) | 4 (≈ 6.95 µg/mL) | 8 (≈ 13.9 µg/mL) | 2 (≈ 3.47 µg/mL) | 2 (≈ 3.47 µg/mL) | 2 | 2 | 2 | 4 | 32 | 128 | 64 | 128 | 4 | 4 | 4 (≈ 6.95 µg/mL) | 4 (≈ 6.95 µg/mL) | 4 (≈ 6.95 µg/mL) | 4 | 8 | 64 | MBRC (CV at 595 nm) LD50 (P. aeruginosa PAO1 [6]; PAO1): 64 µmol/L
CC(C)C[C@H](NC(=O)[C@H](Cc1ccccc1)NC(=O)[C@@H]1CCCN1C(=O)[C@H](Cc1ccccc1)NC(=O)[C@H](Cc1ccccc1)NC(=O)[C@H](Cc1ccccc1)NC(=O)[C@@H]1CCCN1C(=O)[C@H](Cc1ccccc1)NC(=O)[C@H](CCCNC(=N)N)NC(=O)[C@H](CCCNC(=N)N)NC(=O)[C@@H](N)C(C)C)C(=O)N[C@@H](CCCNC(=N)N)C(=O)N[C@@H](CCCNC(=N)N)C(N)=O [Tritrp-W678F] (H-VRRFPFFFPFLRR-NH2) | 32 (≈ 57.1 µg/mL) | >64 | 0.5 (≈ 0.892 µg/mL) | 0.5 (≈ 0.892 µg/mL) | 1 | 1 | 2 | 4 | 32 | 64 | 128 | 128 | 32 | 64 | 8 (≈ 14.3 µg/mL) | 32 (≈ 57.1 µg/mL) | >64 | 64 | >64 | >128 | MBRC (CV at 595 nm) LD50 (P. aeruginosa PAO1 [6]; PAO1): 128 µmol/L
CC(C)C[C@H](NC(=O)[C@H](Cc1ccccc1)NC(=O)[C@@H]1CCCN1C(=O)[C@H](Cc1ccc(O)cc1)NC(=O)[C@H](Cc1ccc(O)cc1)NC(=O)[C@H](Cc1ccc(O)cc1)NC(=O)[C@@H]1CCCN1C(=O)[C@H](Cc1ccccc1)NC(=O)[C@H](CCCNC(=N)N)NC(=O)[C@H](CCCNC(=N)N)NC(=O)[C@@H](N)C(C)C)C(=O)N[C@@H](CCCNC(=N)N)C(=O)N[C@@H](CCCNC(=N)N)C(N)=O [Tritrp-W678Y] (H-VRRFPYYYPFLRR-NH2) | >64 | >64 | 1 (≈ 1.83 µg/mL) | 2 (≈ 3.66 µg/mL) | 1 | 2 | 2 | 8 | >128 | >128 | >128 | >128 | >64 | >64 | 16 (≈ 29.3 µg/mL) | >64 | >64 | >64 | >64 | >128 | MBRC (CV at 595 nm) LD50 (P. aeruginosa PAO1 [6]; PAO1): 128 µmol/L
VRRFP(hW)(hW)(hW)PFLRR-NH2 [Tritrp-W678hW, Tritrp analog with hydroxy-Trp in place of the three Trp] | >64 | >64 | 2 | 4 | 2 | 4 | 4 | 8 | >128 | >128 | >128 | >128 | 16 | 64 | 16 | 32 | 64 | 32 | >64 | >128 | MBRC (CV at 595 nm) LD50 (P. aeruginosa PAO1 [6]; [18]): >128 µmol/L
